These results are taken from patent US9249147B2, “Tyrosine kinase inhibitors” (CHEMBRIDGE CORPORATION, priority 2008, dated 2016).

In brackets after ≈: the same amount, converted by molar mass. Read-outs that look alike come from different tables or passages of the source.

For one data set, the target named is ALK (Homo sapiens, UniProt Q9UM73). The experiment in a line: ALK kinase assay (Kinase-Glo / AlphaScreen, purified NPM-ALK). It is filed as biochemical. More on the design: fused to the complete intracytoplasmic portion of ALK containing the functional tyrosine kinase domain; 6xHis; made in house; host or cells: insect cells; the other entry of the earlier key: NPM1 (P06748, Nucleophosmin). As to conditions: Table 1; read-out: ALK IC50. In general terms: In Kinase-Glo more light means more ATP remaining.

The next data set has as its target T1, IGF1R (Homo sapiens, UniProt P08069).
T1 construct: 6×His- or GST-tagged kinase domain fragments of the corresponding RTKs expressed in baculovirus system; host or cells: baculovirus system
Description: IGF1R kinase assay. In kind it is biochemical. To be noted: Table 1; read-out: IGF1R IC50. As for the experimental part: (§1) To determine inhibition of several tyrosine kinases, such as IGF1R, InsR, Alk, TrkA and Jak2, kinase assays are conducted using either Kinase-Glo (Promega) or AlphaScreen (PerkinElmer) kinase assay platforms. The Kinase-Glo Luminescent Kinase Assay is a homogeneous method for measuring kinase activity by determining the amount of ATP remaining after a kinase reaction. The luminescent signal is proportional to the amount of ATP and inversely proportional to the amount of kinase activity. Tyrosine kinase PT66 AlphaScreen Assay is a high-sensitivity homogeneous, anti-phosphotyrosine antibody-mediated luminescent proximity method measuring incorporation of phosphate in synthetic poly(Glu-Tyr) substrate. The kinase preparations used consist of purified recombinant, 6×His- or GST-tagged kinase domain fragments of the corresponding RTKs expressed in baculovirus system.
(§2) Compounds with a range of concentrations 40 μM, 20 μM, 10 μM, 5 μM, 2.5 μM, 1.25 μM, 0.625 μM, 0.3125 μM, 0.15625 μM and 0.078125 μM were incubated with NPM-ALK, which was produced in insect cells as a 6×HIS-tagged fusion protein and purified using nickel-charged resin chromatography, for 30 minutes at RT in the presence of 10 μM ATP and 7.0 ng biotinylated poly-GT. A 1:1 mixture of […] and donor beads was then added to the reaction and incubated for an additional 60 minutes at RT. The assay was conducted on a MultiPROBE liquid handling workstation (PerkinElmer) in a 384-well plate format with a total reaction volume of 40 μL per well. Working stocks of all compounds were dissolved in 100% DMSO and serial dilutions of the compounds were performed using kinase buffer (50 mM Tris-HCl (pH 7.5), 5 mM MgCl2, 5 mM MnCl2, 2 mM DTT (added freshly before use), 0.01% Tween-20) containing 5% DMSO. […] Data were collected as optical readings at 520-680 nm on a Fusion™ microplate analyzer (PerkinElmer), and IC50 and Ki values calculated using PRISM3.0 software (GraphPad Software, Inc., San Diego, Calif.). The same assay was also used with minor modifications to assess the IC50 and Ki values for selected compounds against five other tyrosine kinases (IRK, IGF1R, Flt3, Abl, Src), all of which were purchased from commercial vendors. PolyGT-Biotin was bought from CIS Biointernational Cat. #61GT0BLD; ATP—from Sigma Cat. # A7699; sodium orthovanadate—from Sigma Cat. #S-6508; phosphotyrosine (PT66) assay kit from PerkinElmer Cat. #6760602M; automated workstation tips (20 μL): PerkinElmer Cat. #6000657; and OptiPlate-384 (white)—from PerkinElmer Cat. #6007299.

A further data set concerns the target T2, IRK (Homo sapiens, UniProt P06213).
T2 construct: 6×His- or GST-tagged kinase domain fragments of the corresponding RTKs expressed in baculovirus system; host or cells: baculovirus system
The experiment in a line: IRK (insulin receptor kinase) assay. As to conditions: Table 1; read-out: IRK IC50. In kind it is biochemical. The protocol: as §1, §2

Data set [1] in a line: Caco-2 (TC7) A-B Permeability test (pH 6.5/7.4). To be noted: human, A-B Permeability (TC7, pH 6.5/7.4), test concentration 1.0E−05 M. On the technique in general: Passage across Caco-2 layers is used to estimate intestinal permeability.
Data set [2] in a line: Aqueous Solubility (PBS, pH 7.4). To be noted: pH 7.4, 2.0E−04 M; for solubility: pH 7.4, PBS. In kind it is physicochemical.
The mark [3] stands for this setting: Caco-2, pH 6.5, Mean Recovery, mean of n = 2.
The mark [4] stands for this setting: Caco-2, pH 6.5, Permeability 1st, 1st replicate.
[5] abbreviates: Caco-2, pH 6.5, Permeability 2nd, 2nd replicate.
The mark [6] stands for this setting: Caco-2, pH 6.5, Present Recovery 1st, 1st replicate.
Where [7] appears, read: Caco-2, pH 6.5, Present Recovery 2nd, 2nd replicate.
Where [8] appears, read: Tables 9C, 9D, read-out: Solubility Mean.
[9] abbreviates: individual data, read-out: Solubility 1st/2nd.
Setting [10] is: Caco-2, pH 6.5, Mean Permeability, mean of n = 2.

Broadly, the IC50 is the midpoint of a concentration-inhibition curve. By Papp A→B is commonly meant how fast a substance crosses the layer from the apical side.

Sequence of ALK (Q9UM73 with tags, fused parts or gaps): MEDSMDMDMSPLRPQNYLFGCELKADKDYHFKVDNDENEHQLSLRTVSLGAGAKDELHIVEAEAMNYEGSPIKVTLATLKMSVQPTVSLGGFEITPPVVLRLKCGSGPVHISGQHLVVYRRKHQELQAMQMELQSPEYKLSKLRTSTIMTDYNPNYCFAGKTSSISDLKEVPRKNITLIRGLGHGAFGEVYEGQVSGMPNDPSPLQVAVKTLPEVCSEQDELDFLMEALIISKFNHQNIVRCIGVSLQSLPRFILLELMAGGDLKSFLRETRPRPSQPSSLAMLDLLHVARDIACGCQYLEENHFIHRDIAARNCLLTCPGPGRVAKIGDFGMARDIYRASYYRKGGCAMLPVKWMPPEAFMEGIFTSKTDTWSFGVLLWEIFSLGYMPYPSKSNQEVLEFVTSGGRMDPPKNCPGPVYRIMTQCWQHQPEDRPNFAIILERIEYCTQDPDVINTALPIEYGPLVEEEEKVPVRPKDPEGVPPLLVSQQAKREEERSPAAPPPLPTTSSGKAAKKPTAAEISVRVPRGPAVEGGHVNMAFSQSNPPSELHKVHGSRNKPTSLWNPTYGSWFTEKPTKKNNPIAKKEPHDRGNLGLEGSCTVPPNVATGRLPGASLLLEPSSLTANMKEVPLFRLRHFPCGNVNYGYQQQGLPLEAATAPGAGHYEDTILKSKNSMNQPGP
T2 sequence (P06213 1023-1298 limits assumed): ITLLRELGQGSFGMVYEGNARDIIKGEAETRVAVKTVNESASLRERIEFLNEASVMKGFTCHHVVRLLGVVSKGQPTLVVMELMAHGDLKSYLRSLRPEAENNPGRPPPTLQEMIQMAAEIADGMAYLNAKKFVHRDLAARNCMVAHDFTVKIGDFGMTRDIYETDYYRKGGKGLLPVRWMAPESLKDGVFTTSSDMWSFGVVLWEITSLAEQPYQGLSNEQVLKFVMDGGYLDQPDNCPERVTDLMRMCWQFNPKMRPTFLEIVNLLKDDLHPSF
T1 sequence (P08069 999-1274 limits assumed): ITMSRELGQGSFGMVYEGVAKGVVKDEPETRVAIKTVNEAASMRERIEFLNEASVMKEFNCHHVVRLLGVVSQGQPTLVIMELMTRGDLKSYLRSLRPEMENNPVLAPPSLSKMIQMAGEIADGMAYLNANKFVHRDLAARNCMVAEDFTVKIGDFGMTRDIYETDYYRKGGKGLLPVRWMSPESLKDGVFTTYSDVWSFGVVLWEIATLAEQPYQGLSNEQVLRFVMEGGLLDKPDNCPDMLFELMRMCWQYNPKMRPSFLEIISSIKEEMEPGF

Take `CC(Cc1cccs1)Nc1cc[nH]c(=O)c1-c1nc2cc3c(cc2[nH]1)C(=O)N(C1CCN(C)CC1)C3=O` (centres unmarked): the 50% inhibitory concentration (IC50) at ALK is 0.25 to 1 µM; at IGF1R, more than 1 µM; at IRK it was more than 1 µM.
For the compound `C[C@H](Cc1cccs1)Nc1cc[nH]c(=O)c1-c1nc2c(Cl)c3c(cc2[nH]1)C(=O)N(C1CCN(C)CC1)C3=O`, the 50% inhibitory concentration (IC50) on ALK, on IGF1R and on IRK was more than 1 µM throughout.
As to `CC(Cc1ccccc1F)Nc1cc[nH]c(=O)c1-c1nc2cc3c(cc2[nH]1)C(=O)N(CCCN1CCCC1)C3` (centres unmarked), the concentration for half-maximal inhibition (IC50) was 0.1 to 0.25 µM on ALK, 0.1 to 0.25 µM at IGF1R and more than 1 µM at IRK.
In the case of `CC(Cc1cccs1)N(C)c1cc[nH]c(=O)c1-c1nc2cc3c(cc2[nH]1)C(=O)N(CCCN1CCCC1)C3` (centres unmarked), the IC50 at ALK, on IGF1R and at IRK was more than 1 µM in each case.
For the compound `C[C@@H](Cc1cccs1)Nc1cc[nH]c(=O)c1-c1nc2cc3c(cc2[nH]1)C(=O)N(CCCN(C)C)C3`, the values for the IC50 at ALK, at IGF1R and at IRK were 0.1 to 0.25 µM, 0.25 to 1 µM and 0.1 to 0.25 µM, respectively.
On to `C[C@@H](Cc1cccs1)Nc1cc[nH]c(=O)c1-c1nc2cc3c(cc2[nH]1)C(=O)N(CCN1CCCC1)C3`, for which the IC50 was in the range of 0.25 to 1 µM on ALK, 0.25 to 1 µM at IGF1R and 0.1 to 0.25 µM at IRK.
Take `C[C@H](Nc1cc[nH]c(=O)c1-c1nc2cc3c(cc2[nH]1)C(=O)N(CCCN1CCCC1)C3)[C@H](O)c1ccccc1`: the IC50 on ALK was in the range of 0.1 to 0.25 µM; on IGF1R it was 0.25 to 1 µM; at IRK it was 0.25 to 1 µM.
On to `C[C@@H](Cc1cccs1)Nc1cc[nH]c(=O)c1-c1nc2cc3c(cc2[nH]1)C(=O)N(C1CCN(CCS(C)(=O)=O)CC1)C3`, for which the half-inhibitory concentration (IC50) at ALK was 0.1 to 0.25 µM; on IGF1R it was 0.1 to 0.25 µM; at IRK, 0.25 to 1 µM.
With `CCS(=O)(=O)CCN1CCC(N2Cc3cc4nc(-c5c(N[C@@H](C)Cc6cccs6)cc[nH]c5=O)[nH]c4cc3C2=O)CC1`, the IC50 at ALK is 0.1 to 0.25 µM; at IGF1R it was 0.25 to 1 µM; at IRK, 0.1 to 0.25 µM.
Turning to `Cc1ccsc1C[C@H](C)Nc1cc[nH]c(=O)c1-c1nc2cc3c(cc2[nH]1)CN(CCN1CCCC1)C3=O`, the half-maximal inhibitory concentration (IC50) on ALK is 0.01 to 0.1 µM; on IGF1R it was 0.25 to 1 µM; on IRK, 0.01 to 0.1 µM.
With `C[C@@H](Cc1sccc1Cl)Nc1cc[nH]c(=O)c1-c1nc2cc3c(cc2[nH]1)CN(CCN1CCCC1)C3=O`, the IC50 on ALK was in the range of 0.01 to 0.1 µM; at IGF1R, 0.1 to 0.25 µM; at IRK, 0.1 to 0.25 µM.
For the compound `Cc1ccsc1C[C@H](C)Nc1cc[nH]c(=O)c1-c1nc2cc3c(cc2[nH]1)CN(CCN1CCC[C@H]1C)C3=O`, the IC50 on ALK is 0.01 to 0.1 µM; at IGF1R, 0.25 to 1 µM; at IRK, 0.1 to 0.25 µM.
`COc1cc2c(c(OC)c1OC)-c1ccc(OC)c(=O)cc1[C@@H](NC(C)=O)CC2` [Colchicine]: the recovery at 10 µM in data set [1] (setting [3]) worked out at 97%; in data set [1] (setting [6]), 99%; in data set [1] (setting [7]) it was 65%. Further, the Papp A→B at 10 µM was 9 nm/s in data set [1] (setting [4]) and 0.5 nm/s in data set [1] (setting [5]).
For `O=C(CCCN1CCC(O)(c2ccc(Cl)cc2)CC1)c1ccc(F)cc1` [Haloperidol], the “Solubility 1st/2nd” value in data set [2] (individual data) amounted to 61.29 μm. In addition, the solubility in data set [2] (setting [8]) was 61.9 µM (≈ 23.3 µg/mL); in data set [2] (setting [9]) it was 62.5 µM (≈ 23.5 µg/mL).
The matching figures for `CC(=O)N1CCN(c2ccc(OCC3COC(Cn4ccnc4)(c4ccc(Cl)cc4Cl)O3)cc2)CC1` (centres unmarked) [Ketoconazole, ketoconazole, reference compound]: 109.58 μm, 108 µM (≈ 57.5 µg/mL) and 107 µM (≈ 56.7 µg/mL).
With `CC(CCc1ccccc1)NCC(O)c1ccc(O)c(C(N)=O)c1` (centres unmarked) [Labetalol], the apparent permeability from apical to basolateral (Papp A→B) at 10 µM in data set [1] (setting [10]) was found to be 60 nm/s; in data set [1] (setting [4]), 58 nm/s; in data set [1] (setting [5]), 62.1 nm/s. Moreover, the figures for the recovery at 10 µM in data set [1] (setting [3]), in data set [1] (setting [6]) and in data set [1] (setting [7]) were 90%, 91% and 88%, respectively.
Consider `O=C1NC(=O)C(c2ccccc2)(c2ccccc2)N1` [Phenytoin], for which, in data set [2] (individual data), the “Solubility 1st/2nd” value was determined as 86.44 μm. Moreover, the solubility in data set [2] (setting [8]) was determined as 87 µM (≈ 21.9 µg/mL); in data set [2] (setting [9]), 87.7 µM (≈ 22.1 µg/mL).
For `CNC(=C[N+](=O)[O-])NCCSCc1ccc(CN(C)C)o1` [Ranitidine], the Papp A→B at 10 µM in data set [1] (setting [10]) is 6 nm/s; in data set [1] (setting [4]) it was 5.8 nm/s; in data set [1] (setting [5]), 6.4 nm/s. Besides, the results for the recovery at 10 µM in data set [1] (setting [3]), in data set [1] (setting [6]) and in data set [1] (setting [7]) were 95%, 82% and 109%, respectively.
Turning to `C[C@@H](Cc1cccs1)Nc1cc[nH]c(=O)c1-c1nc2cc3c(cc2[nH]1)C(=O)N(CCCN1CCCC1)C3` [drawing 259], the IC50 on ALK is 0.1 to 0.25 µM; at IGF1R it was 0.25 to 1 µM; on IRK, 0.1 to 0.25 µM.
Regarding `Cc1ccc(F)cc1C[C@H](C)Nc1cc[nH]c(=O)c1-c1nc2c(C)c3c(cc2[nH]1)CN(CCN1CCCC1)C3=O` [drawing 321], the figures for the half-inhibitory concentration (IC50) on ALK, at IGF1R and on IRK were less than 0.01 µM, 0.1 to 0.25 µM and 0.1 to 0.25 µM, respectively.
Consider `C[C@@H](Cc1cc(F)cc(F)c1F)Nc1cc[nH]c(=O)c1-c1nc2cc3c(cc2[nH]1)CN(CCN(C)C)C3=O` [drawing 325], for which the IC50 is less than 0.01 µM at ALK, 0.1 to 0.25 µM at IGF1R and 0.25 to 1 µM at IRK.
Regarding `C[C@@H](Cc1cc(F)cc(F)c1F)Nc1cc[nH]c(=O)c1-c1nc2cc3c(cc2[nH]1)CN(CCN1CCCC1)C3=O` [drawing 327], the IC50 was 0.01 to 0.1 µM at ALK, 0.25 to 1 µM at IGF1R and 0.25 to 1 µM on IRK.
With `C[C@@H](Cc1cc(F)ccc1Br)Nc1cc[nH]c(=O)c1-c1nc2cc3c(cc2[nH]1)CN(CCN1CCCC1)C3=O` [drawing 330], the 50% inhibitory concentration (IC50) at ALK is less than 0.01 µM; at IGF1R, 0.25 to 1 µM; on IRK, 0.1 to 0.25 µM.
The matching figures for `Cc1ccc(F)cc1C[C@H](C)Nc1cc[nH]c(=O)c1-c1nc2cc3c(cc2[nH]1)CN(CCN1CCC[C@H]1C)C3=O` [drawing 339]: 0.01 to 0.1 µM, more than 1 µM and 0.25 to 1 µM.
Turning to `C[C@@H]1CCCN1CCN1Cc2cc3[nH]c(-c4c(N[C@@H](C)Cc5cc(F)cc(F)c5F)cc[nH]c4=O)nc3cc2C1=O` [drawing 340], the half-inhibitory concentration (IC50) at ALK was less than 0.01 µM; on IGF1R it was more than 1 µM; on IRK it was 0.25 to 1 µM.
For the compound `C[C@@H](Cc1c(F)c(F)cc(F)c1F)Nc1cc[nH]c(=O)c1-c1nc2cc3c(cc2[nH]1)CN(CCN1CCCC1)C3=O` [drawing 345], the half-maximal inhibitory concentration (IC50) at ALK was less than 0.01 µM; on IGF1R it was more than 1 µM; at IRK it was 0.25 to 1 µM.
